Source: US20080119462A1, “METHOD FOR TREATING VASCULAR HYPERPERMEABLE DISEASE” (Sucampo AG, priority 2003, published 2008)

Key:
[1] = biological target: T1, Cloned human DAO (Homo sapiens, UniProt P19801); assay: Diamine oxidase (DAO, histaminase) activity assay with 14C-putrescine; type: biochemical
T1 construct: made in house
T1 sequence (P19801 20-751): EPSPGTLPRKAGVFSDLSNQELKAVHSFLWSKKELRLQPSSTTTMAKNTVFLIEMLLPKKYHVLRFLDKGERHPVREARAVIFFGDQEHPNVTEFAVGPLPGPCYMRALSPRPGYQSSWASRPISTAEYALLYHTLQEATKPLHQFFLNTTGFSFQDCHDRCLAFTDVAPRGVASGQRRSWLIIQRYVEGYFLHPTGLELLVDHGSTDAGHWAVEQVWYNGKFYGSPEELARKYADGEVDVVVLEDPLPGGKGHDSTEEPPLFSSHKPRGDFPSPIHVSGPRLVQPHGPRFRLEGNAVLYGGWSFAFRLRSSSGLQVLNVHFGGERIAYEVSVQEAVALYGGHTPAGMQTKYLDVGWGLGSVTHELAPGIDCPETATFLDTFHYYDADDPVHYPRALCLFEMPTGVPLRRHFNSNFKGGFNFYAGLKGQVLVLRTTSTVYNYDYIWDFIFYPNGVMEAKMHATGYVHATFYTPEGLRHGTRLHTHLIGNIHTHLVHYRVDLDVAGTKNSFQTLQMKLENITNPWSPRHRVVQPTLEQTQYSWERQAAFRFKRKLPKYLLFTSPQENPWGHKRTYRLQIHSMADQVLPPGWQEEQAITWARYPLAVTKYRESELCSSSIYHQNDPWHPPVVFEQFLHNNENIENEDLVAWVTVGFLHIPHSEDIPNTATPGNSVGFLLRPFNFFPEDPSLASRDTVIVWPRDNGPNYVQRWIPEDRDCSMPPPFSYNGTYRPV
Description: (§1) VAP-1 enzyme (SSAO) activity in both human and rat plasma was determined by a radiochemical-enzyme assay using ^14C-benzylamine as artificial substrate. The enzyme suspension prepared from blood plasma was pre-incubated with Compound A in 96-well microplate at room temperature for 30 min. The enzyme suspension was then incubated with ^14C-benzylamine (2×10^−5 mol/l final concentration) in a final volume of 50 μl at 37° C. for 1 hour. The enzyme reaction was terminated by adding 2 mol/l (50 μl) citric acid. The oxidized products were directly extracted into a 200 μl toluene scintillator, and its radioactivity was measured by a scintillation spectrometer. Monoamine oxidase (MAO) and diamine oxidase (DAO, histaminase) activities were also determined by similar method using ^14C-phenylethylamine and ^14C-putrescine as substrate, respectively. Cloned DAO from cDNA libraries was used in human DAO assay. Inhibition activity was expressed as IC50 (μmol/l) value.

[2] = system: retinal VEGF; assay: Retinal VEGF level in STZ diabetic rats (Murine VEGF ELISA kit); type: in vivo, rat; settings: 0.1 mg/kg, sc, u.i.d.
Description: STZ diabetic rats were prepared in the same manner as in Example 2. Compound A (0.1 mg/kg, sc, u.i.d.) was administered from 3 days to 8 weeks after the STZ administration. To the normal group and STZ control group, a vehicle was treated. At 8 weeks from the STZ administration, the retina was removed from the animals and the retinal VEGF level was determined using a Murine VEGF ELISA kit.

[3] = biological target: T2, retinal VAP-1 (Rattus norvegicus, UniProt O08590); assay: Retinal VAP-1 activity in STZ diabetic rats after eye-drop instillation; type: in vivo
T2 construct: from tissue; host or cells: retina of STZ diabetic rats
T2 sequence (O08590 1-763): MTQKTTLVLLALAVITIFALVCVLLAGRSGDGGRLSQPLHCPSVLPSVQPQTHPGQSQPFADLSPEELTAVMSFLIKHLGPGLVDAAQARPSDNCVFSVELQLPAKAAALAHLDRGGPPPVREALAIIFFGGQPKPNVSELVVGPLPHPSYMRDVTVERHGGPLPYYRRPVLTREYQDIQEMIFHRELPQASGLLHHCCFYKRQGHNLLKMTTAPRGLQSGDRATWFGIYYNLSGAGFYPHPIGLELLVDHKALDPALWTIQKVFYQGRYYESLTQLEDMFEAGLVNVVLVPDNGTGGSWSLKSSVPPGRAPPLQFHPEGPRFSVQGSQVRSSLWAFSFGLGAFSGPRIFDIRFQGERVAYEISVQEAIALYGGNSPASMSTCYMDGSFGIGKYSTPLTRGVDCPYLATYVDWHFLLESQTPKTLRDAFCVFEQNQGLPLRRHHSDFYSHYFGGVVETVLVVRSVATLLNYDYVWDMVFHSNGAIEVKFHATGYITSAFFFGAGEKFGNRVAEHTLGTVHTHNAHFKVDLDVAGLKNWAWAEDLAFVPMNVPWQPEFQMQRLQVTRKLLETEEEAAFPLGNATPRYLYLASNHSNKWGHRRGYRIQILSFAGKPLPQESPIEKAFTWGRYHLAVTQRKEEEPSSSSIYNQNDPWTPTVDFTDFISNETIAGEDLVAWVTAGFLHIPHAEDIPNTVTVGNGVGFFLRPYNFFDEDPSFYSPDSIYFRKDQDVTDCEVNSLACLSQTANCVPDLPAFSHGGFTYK
Description: A 0.1% solution of Compound A was instilled into the eyes of STZ diabetic rats (10 μl/eye) prepared in the same manner as in Example 2. To the normal group and STZ control group, a vehicle was instilled. At 6 hours from the instillation, the retina was removed from the animals and the retinal VAP-1 activity was determined.

[4] = biological target: T3, Human platelet MAO (Homo sapiens, UniProt P27338); assay: Monoamine oxidase (MAO) activity assay with 14C-phenylethylamine; type: biochemical
T3 construct: human platelet MAO; from tissue; host or cells: human platelets
T3 sequence (P27338 1-520): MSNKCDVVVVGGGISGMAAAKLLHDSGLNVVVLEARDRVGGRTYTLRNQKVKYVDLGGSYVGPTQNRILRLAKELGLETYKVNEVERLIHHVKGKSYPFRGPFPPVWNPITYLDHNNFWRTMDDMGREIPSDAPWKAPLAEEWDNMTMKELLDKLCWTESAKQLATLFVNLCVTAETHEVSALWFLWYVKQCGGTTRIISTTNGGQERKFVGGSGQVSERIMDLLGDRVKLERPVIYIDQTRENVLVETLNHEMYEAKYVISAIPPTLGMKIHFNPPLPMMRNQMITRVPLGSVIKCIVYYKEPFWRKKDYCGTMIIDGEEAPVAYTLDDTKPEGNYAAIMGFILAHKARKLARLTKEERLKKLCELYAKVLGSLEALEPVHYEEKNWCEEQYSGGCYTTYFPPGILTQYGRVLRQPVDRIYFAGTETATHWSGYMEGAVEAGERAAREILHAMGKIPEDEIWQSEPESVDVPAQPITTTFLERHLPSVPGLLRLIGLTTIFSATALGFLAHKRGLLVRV
Description: as §1

CC(=O)Nc1nc(CCc2ccc(NC(=N)N)cc2)cs1 [Compound A, N-{4-[2-(4-{[amino(imino)methyl]amino}phenyl)ethyl]-1,3-thiazol-2-yl}acetamide]
Inhibition of the enzyme activity of cloned DAO (in words) [1]: not
IC50 ([1]; 14C-putrescine as substrate, read-out: Inhibitory effect (IC50 values) Cloned human DAO): > 100 µM
Effect on the increased retinal VEGF level in STZ diabetic rats (in words) ([2]; 3 days to 8 weeks after STZ): completely inhibited
Retinal VEGF level ([2]; STZ diabetic rats, from 3 days to 8 weeks after STZ, mean ± S.E.M., 10 rats): 28.3 ± 2.72 pg/mg protein
Effect on the increased retinal VAP-1 activity in STZ diabetic rats (in words) ([3]; 0.1% solution instilled into the eyes, 6 hours): completely inhibited
Retinal VAP-1 activity ([3]; STZ diabetic rats, 0.1%, ocular instillation (10 μl/eye), 6 hours after instillation, mean ± S.E.M., 4 rats): 4.86 ± 0.70 pmol/min/mg protein
Inhibition of the enzyme activity of human platelet MAO (in words) [4]: not
IC50 ([4]; 14C-phenylethylamine as substrate, read-out: Inhibitory effect (IC50 values) Human platelet MAO): > 100 µM
